Assay results reported in PMC6680510, “Benzotriazine Di-Oxide Prodrugs for Exploiting Hypoxia and Low Extracellular pH in Tumors” (Molecules, 2019).
Where two headings read alike, the source gives them in different places.

Key:
[1] = tested on: SiHa cells; assay: IC50 assay (inhibition of proliferation, 4 h exposure, SRB); conditions: SiHa; for IC50: Homo sapiens, 4 h
Description: Cells were seeded in 96-well plates (SiHa or FaDu 1500 cells/well, UT-SCC-74B 800 cells/well) in 100 μL. After incubation for 2 h, the drugs were added in 50 μL of the same titrated medium at 3× the final concentration to duplicate the wells. After a further 4 h the plates were checked for drug precipitation using a phase contrast microscope, then drugs were removed by aspirating and washing with the standard (pH 7.4) medium, then aspirating again and adding 150 μL of the medium. Cultures were then grown for 5 days before staining with sulphorhodamine B and measuring absorbance, with the estimation of IC50 values using 4-parameter logistic regression, as previously carried out.
The medium and plasticware was equilibrated in the chamber for 3 days prior to use. In the anoxia experiments, FaDu cells were plated in poly-L-lysine coated plates (Corning Cat # 356461) to improve attachment.
Cells were subsequently grown under standard cell culture conditions (oxia, pHe 7.4) for 5 days before staining with sulforhodamine B (SRB). […] (B) SN30000 (2). (C) BTO acid 4a. Values are means and errors are ranges for duplicate cultures in a single experiment. Fitted curves are 4-parameter logistic regressions. PCR = pH cytotoxicity ratio. ACR = anoxia cytotoxicity ratio. TMR = tumor microenvironment ratio.

[2] = cited from earlier work
[3] = tested on: SiHa and FaDu cells; assay: IC50 assay, summary statements over both cell lines; assay type: cell-based; conditions: SiHa and FaDu, anoxia, pHe 6.5; read-out: Potency (IC50) under anoxia at pHe 6.5
Description: Cells were seeded in 96-well plates (SiHa or FaDu 1500 cells/well, UT-SCC-74B 800 cells/well) in 100 μL. After incubation for 2 h, the drugs were added in 50 μL of the same titrated medium at 3× the final concentration to duplicate the wells. After a further 4 h the plates were checked for drug precipitation using a phase contrast microscope, then drugs were removed by aspirating and washing with the standard (pH 7.4) medium, then aspirating again and adding 150 μL of the medium. Cultures were then grown for 5 days before staining with sulphorhodamine B and measuring absorbance, with the estimation of IC50 values using 4-parameter logistic regression, as previously carried out [85].

[4] = tested on: FaDu cells; assay: IC50 assay (inhibition of proliferation, 4 h exposure, SRB); assay type: cell-based; conditions: for IC50: Homo sapiens, 4 h
[5] = tested on: SiHa cells; assay: Metabolism and uptake of ester 4b in anoxic single cell suspensions; assay type: in vitro ADME; conditions: anoxic SiHa suspensions after addition of 4b (150 μM)
Text: If the anionic sidechain of the BTO acids results in low intracellular concentrations, with reductive metabolism occurring largely at the cell surface, the corresponding esters would be expected to provide improved delivery to the intracellular compartment (consistent with their higher cytotoxic potencies, as noted in Section 2.5). To test this, we compared the metabolism of ester 4b (Figure 7A) with its corresponding acid 4a (Figure 7B) by monitoring extracellular concentrations in anoxic SiHa suspensions. The rates of metabolism of both compounds were unaffected by pHe, consistent with the results for 4a in Figure 5B. The ester was metabolized more rapidly than the acid, with only a trace of acid 4a detected transiently as an extracellular metabolite (Figure 7A). The major metabolites were the less polar 1-oxide, 15a, and the 1-oxide of the ester, 16a. In separate experiments with higher initial concentrations of 4b, 15a was again the main extracellular metabolite (Figure 7C, left). […] Compound 4b itself was not detected in the intracellular samples, presumably reflecting a lack of retention in cells and the very low intracellular volume, which will compromise analytical sensitivity (only 2 × 10^6 cells were collected for each analysis in this experiment).
Figure 7 Metabolism of BTO ester 4b and the corresponding acid 4a by anoxic SiHa single cell suspensions (2 × 10^6 cells/mL). (A) Extracellular concentrations following the addition of 4b (50 μM). (B) Extracellular concentrations following the addition of 4a (50 μM). (C) Extracellular (left) and intracellular (right) concentrations following the addition of 4b (150 μM). Values are means and errors are SEM for 3 replicate cultures.

[6] = One-electron reduction potentials by pulse radiolysis; assay type: physicochemical; conditions: pH 7.0, equilibrium with redox indicator shown in square brackets
Description: One-electron reduction potentials (E^0′) were determined from the redox equilibria with methylviologen, MV^2+, (E^0′ = […], [34]), dimethyldiquat, V21^2+, (E^0′ = […], [35]), or triquat, TQ^2+, (E^0′ = −548 ± 7 mV [34]). […] Substituting the 3-alkanoic sidechain with the 3-aminoalkanoic sidechain on the BTO 1,4-dioxide lowers the E^0′, as does the addition of the cyclopentane ring. The combined effect is seen for 10a, where the E^0′ value is −565 mV, which is expected to be too low for significant bioreduction under hypoxia.
Time-resolved optical absorption and kinetic studies were carried out using the University of Auckland’s 4 MeV linear accelerator, which has been previously described. The one-electron reduction potentials of the compounds (A) and couple E^0′(A/A^−), versus normal hydrogen electrode, were determined at pH 7.0 (2.5 mM phosphate) by establishing redox equilibria within 50 μs between three mixtures of one-electron reduced A and the viologen reference compounds, MV^2+, TQ^2+ and V21^2+. The determined equilibrium constants were used to calculate the ΔE values using the Nernst equation, correcting for ionic strength effects, as described in the literature.

[7] = Solubility in AlphaMEM + 5% FBS, pH 7.4; conditions: culture medium (AlphaMEM + 5% FBS), pH 7.4, plasma or biological fluid, thermodynamic from solid
[8] = read-out: Anoxic IC50, SiHa, pHe 6.5, 4 h, anoxic
[9] = read-out: Anoxic IC50, SiHa, pHe 7.4, 4 h, anoxic
[10] = read-out: Oxic IC50, SiHa, pHe 6.5, 4 h, oxic
[11] = read-out: Oxic IC50, SiHa, pHe 7.4, 4 h, oxic
[12] = pHe 6.5, 4 h, anoxic, read-out: Anoxic IC50
[13] = pHe 6.5, 4 h, oxic, read-out: Oxic IC50
[14] = pHe 7.4, 4 h, anoxic, read-out: Anoxic IC50
[15] = pHe 7.4, 4 h, oxic, read-out: Oxic IC50

melting point	Structure (SMILES)	IC50 [1, 8] [µM]	IC50 [1, 9] [µM]	IC50 [1, 10] [µM]	IC50 [1, 11] [µM]	TMR (overall TME ratio = oxic IC50 pHe 7.4/anoxic IC50 pHe 6.5) [1]	PCR Anoxic (IC50 at pHe 7.4/IC50 at pHe 6.5) [1]	PCR oxic (IC50 at pHe 7.4/IC50 at pHe 6.5) [1]	TMR (oxic IC50 pHe 7.4/anoxic IC50 pHe 6.5) [4]	IC50 [4, 12] [µM]	IC50 [4, 13] [µM]	IC50 [4, 14] [µM]	IC50 [4, 15] [µM]	PCR Anoxic (IC50 at pHe 7.4/IC50 at pHe 6.5) ([4]; anoxic)	PCR oxic (IC50 at pHe 7.4/IC50 at pHe 6.5) ([4]; oxic)	ACR (oxic IC50/anoxic IC50) ([4]; pHe 6.5)	ACR (oxic IC50/anoxic IC50) ([4]; pHe 7.4)	further results
–	Nc1n[n+]([O-])c2ccccc2[n+]1[O-] [Compound 3, tirapazamine, reference compound]	2.9 ± 0.38	2.81 ± 0.3	91 ± 21	162 ± 8	56 ± 8	0.97 ± 0.16	1.77 ± 0.42	26.2 ± 5.9	6.96 ± 1.38	127 ± 14	5.9 ± 0.48	182 ± 20	0.85 ± 0.18	1.43 ± 0.22	18.3 ± 4.1	30.9 ± 4.2	E^0′ one-electron reduction potential ([2]; pulse radiolysis, redox indicator MV^2+): −456 ± 8 [MV^2+] ^h mV; IC50 [3]: 2.9 to 8.6 µM
89 to 91 °C	COC(=O)CCc1n[n+]([O-])c2ccccc2[n+]1[O-] [Compound 4b, 3-(3-Methoxy-3-oxopropyl)benzo[e][1,2,4]triazine 1,4-Dioxide]	1.8 ± 0.46	1.4 ± 0.1	26.3 ± 7.1	34.4 ± 3.5	19.1 ± 5.3	0.78 ± 0.21	1.31 ± 0.38	42.3 ± 2.6	3.3 ± 0.11	98 ± 12	3.2 ± 0.38	140 ± 7	0.97 ± 0.12	1.43 ± 0.19	29.6 ± 3.8	43.6 ± 5.7	ACR (anoxic cytotoxicity ratio = oxic IC50/anoxic IC50) ([1]; pHe 6.5): 14.5 ± 5.4; ACR (anoxic cytotoxicity ratio = oxic IC50/anoxic IC50) ([1]; pHe 7.4): 24.6 ± 3.1; Detection in intracellular samples [5]: not detected; E^0′ one-electron reduction potential [6]: −363 ± 7 [MV^2+] mV; solubility [7]: 17.7 mM
152 to 154 °C (dec.)	O=C(O)CCc1nc2ccccc2[n+]([O-])n1 [Compound 15a, 3-(2-Carboxyethyl)benzo[e][1,2,4]triazine 1-Oxide]	–	–	–	–	–	–	–	–	–	–	–	–	–	–	–	–	Intracellular concentration, fold lower than that of acid 4a [5]: approximately 10 fold
–	c1cc[n+]2c(c1)-c1cccc[n+]1CCC2 [triquat, 7,8-dihydrodipyrido-[1,2-a:2′,1′-c][1,4]diazepinedium]	–	–	–	–	–	–	–	–	–	–	–	–	–	–	–	–	E^0′ of redox indicator ([2]; reference viologen): −548 ± 7 mV
